Measurements: patent US20160120863A1, “SLC2A TRANSPORTER INHIBITORS” (IOMET PHARMA LTD., priority 2013, published 2016)

Columns and labels:
[1] = biological target: T1, human GLUT1 (Homo sapiens, UniProt P11166); assay: [3H]-deoxy-D-glucose uptake assay, GLUT1; assay type: cell-based; conditions: [3H]-deoxy-D-glucose uptake in HEK293 cells stably expressing human GLUT1
T1 construct: expressed in transfected cells
T1 sequence (P11166 1-492): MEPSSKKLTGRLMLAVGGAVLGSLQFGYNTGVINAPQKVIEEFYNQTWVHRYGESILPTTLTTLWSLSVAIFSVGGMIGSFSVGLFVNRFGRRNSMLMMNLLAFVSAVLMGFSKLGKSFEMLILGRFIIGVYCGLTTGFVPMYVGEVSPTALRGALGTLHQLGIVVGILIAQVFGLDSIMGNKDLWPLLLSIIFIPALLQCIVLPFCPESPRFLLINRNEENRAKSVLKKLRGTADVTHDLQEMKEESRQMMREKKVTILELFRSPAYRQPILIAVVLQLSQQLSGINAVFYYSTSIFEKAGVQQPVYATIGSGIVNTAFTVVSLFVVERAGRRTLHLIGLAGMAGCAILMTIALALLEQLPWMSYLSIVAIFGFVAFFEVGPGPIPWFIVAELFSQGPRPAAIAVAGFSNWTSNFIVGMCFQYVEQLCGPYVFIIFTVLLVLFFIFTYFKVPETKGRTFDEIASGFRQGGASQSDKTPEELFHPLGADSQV
Outline: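 HEK293 cells stably overexpressing human GLUT1 or GLUT2, seeded at 60,000 per well, treated with compounds in glucose-free uptake buffer for 30 min at 37 °C. [3H]-deoxy-D-glucose uptake quantified by scintillation counting after ice-cold PBS washes; IC50 determined.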

[2] = biological target: T2, human GLUT2 (Homo sapiens, UniProt P11168); assay: [3H]-deoxy-D-glucose uptake assay, GLUT2; assay type: cell-based; conditions: [3H]-deoxy-D-glucose uptake in HEK293 cells stably expressing human GLUT2
T2 construct: expressed in transfected cells
T2 sequence (P11168 1-524): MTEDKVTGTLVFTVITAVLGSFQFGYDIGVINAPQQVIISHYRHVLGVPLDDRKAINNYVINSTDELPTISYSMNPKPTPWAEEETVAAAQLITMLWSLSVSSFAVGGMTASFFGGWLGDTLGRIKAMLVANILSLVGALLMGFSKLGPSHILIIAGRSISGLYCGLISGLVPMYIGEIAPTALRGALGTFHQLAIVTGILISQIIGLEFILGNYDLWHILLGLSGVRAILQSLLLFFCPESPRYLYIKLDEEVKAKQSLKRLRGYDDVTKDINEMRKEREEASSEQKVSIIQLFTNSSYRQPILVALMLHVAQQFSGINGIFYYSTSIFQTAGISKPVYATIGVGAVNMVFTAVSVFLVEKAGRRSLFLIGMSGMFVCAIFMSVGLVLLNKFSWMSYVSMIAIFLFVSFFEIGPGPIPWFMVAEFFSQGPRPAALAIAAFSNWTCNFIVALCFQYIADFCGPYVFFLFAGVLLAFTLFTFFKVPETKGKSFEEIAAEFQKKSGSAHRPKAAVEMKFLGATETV
Method: HEK293 cells were engineered to stably express either human GLUT1, GLUT2, GLUt3 or GLUT4 by transfection with the pReceiver-Lv105 plasmid, containing either hGLUT1, hGLUT2, hGLUT3, or hGLUT4 gene constructs with lipofectamine 2000, hGLUT1- hGLUT2- hGLUT3- or hGLUT4-overexpressing polyclonal populations were isolated under purinomycin selective pressure (1 μg/ml) and maintained in Dulbecco's modified Eagle's medium supplemented with 1 μg/ml purinomycin+10% foetal bovine serum (FBS).
60,000 cells per well were seeded overnight into poly-D-lysine coasted 96-well plates. […] 90 μl of test compounds were added in glucose-free uptake buffer and cells were incubated at 37° C. for 30 min.
Cells were then washed twice with ice-cold PBS and 100 μl of Microscint-20 was added per well. Glucose uptake was quantified with a scintillation counter. The half maximal inhibitory concentration (IC50) (a measure of the effectiveness of the test compound in inhibiting glucose uptake) was determined.

Structure (SMILES) | GLUT1 pIC50 [1] | GLUT2 pIC50 [2]
Clc1ccc(-c2nc3cnc(C4CC4)cn3c2CN2CCn3ncnc3C2)cc1 [Compound 261] | +++ (pIC50 ≧ 6.00) | +++ (pIC50 ≧ 6.00)
N#Cc1ccccc1-c1cn2c(CN3CCOCC3)c(-c3ccc(Cl)cc3)nc2cn1 [Compound 269] | +++ (pIC50 ≧ 6.00) | ++ (pIC50 5.00-5.99)
O=C1CN(Cc2c(-c3ccc(Cl)cc3Cl)nc3cnc(C4CC4)cn23)CCN1 [Compound 272] | +++ (pIC50 ≧ 6.00) | +++ (pIC50 ≧ 6.00)
O=C1CN(Cc2c(-c3ccc(Cl)cc3)nc3ccc(-c4ncon4)cn23)CCN1 [Compound 278] | ++ (pIC50 5.00-5.99) | ++ (pIC50 5.00-5.99)
CC(=O)N1CCN(Cc2c(-c3ccc(Cl)cc3)nc3ccc(N(C)S(C)(=O)=O)cn23)CC1 [Compound 292] | +++ (pIC50 ≧ 6.00) | ++ (pIC50 5.00-5.99)
O=C1CN(Cc2c(-c3ccc(Cl)cc3)nc3ccc(-c4ccccn4)cn23)CCN1 [Compound 294] | +++ (pIC50 ≧ 6.00) | +++ (pIC50 ≧ 6.00)
CC(=O)N1CCN(Cc2c(-c3ccc(Cl)cc3)nc3ccc(-c4ccccn4)cn23)CC1 [Compound 295] | +++ (pIC50 ≧ 6.00) | +++ (pIC50 ≧ 6.00)
Clc1ccc(-c2nc3ccc(C4COC4)cn3c2CN2CCOCC2)cc1 [Compound 298] | ++ (pIC50 5.00-5.99) | +− (pIC50 < 4.00)
Clc1ccc(-c2nc3ccc(-c4ccccn4)cn3c2CN2CCn3ncnc3C2)c(Cl)c1 [Compound 299] | +++ (pIC50 ≧ 6.00) | +++ (pIC50 ≧ 6.00)
O=C(Cc1c(-c2ccc(Cl)cc2)nc2ccc(-c3ccccc3)cn12)N1CCOCC1 [Compound 301] | +− (pIC50 < 4.00) | ++ (pIC50 5.00-5.99)
CCOC(=O)Cc1c(-c2ccc(Cl)cc2)nc2ccc(-c3ccccc3)cn12 [Compound 302] | +− (pIC50 < 4.00) | ++ (pIC50 5.00-5.99)
CN(c1ccc2nc(-c3ccc(Cl)cc3)c(CN3CCNCC3)n2c1)S(C)(=O)=O [Compound 304] | ++ (pIC50 5.00-5.99) | +− (pIC50 < 4.00)
c1ccc(-c2ccc3nc(C4CCOCC4)c(CN4CCOCC4)n3c2)cc1 [Compound 305] | +− (pIC50 < 4.00) | +− (pIC50 < 4.00)
COCC(=O)N1CCN(Cc2c(-c3ccc(Cl)cc3Cl)nc3ccc(-c4ncon4)cn23)CC1 [Compound 307] | +++ (pIC50 ≧ 6.00) | ++ (pIC50 5.00-5.99)
CC(C)(O)C(=O)N1CCN(Cc2c(-c3ccc(Cl)cc3)nc3ccc(-c4ccccc4)cn23)CC1 [Compound 308] | +++ (pIC50 ≧ 6.00) | +++ (pIC50 ≧ 6.00)
CC(=O)N1CCN(Cc2c(-c3ccc(Cl)cc3Cl)nc3ccc(-c4ncon4)cn23)CC1 [Compound 312] | +++ (pIC50 ≧ 6.00) | +++ (pIC50 ≧ 6.00)
COCCS(=O)(=O)Nc1ccc2nc(-c3ccc(Cl)cc3)c(CN3CCN(C(C)=O)CC3)n2c1 [Compound 315] | ++ (pIC50 5.00-5.99) | +− (pIC50 < 4.00)
CC(=O)N1CCN(Cc2c(-c3ccc(Cl)cc3)nc3ccc(NS(=O)(=O)C(C)C)cn23)CC1 [Compound 317] | ++ (pIC50 5.00-5.99) | ++ (pIC50 5.00-5.99)
CC(=O)N1CCN(Cc2c(-c3ccc(Cl)cc3)nc3ccc(NS(=O)(=O)C4CC4)cn23)CC1 [Compound 318] | +++ (pIC50 ≧ 6.00) | ++ (pIC50 5.00-5.99)
CCCS(=O)(=O)Nc1ccc2nc(-c3ccc(Cl)cc3)c(CN3CCN(C(C)=O)CC3)n2c1 [Compound 319] | +++ (pIC50 ≧ 6.00) | ++ (pIC50 5.00-5.99)

Structure (SMILES) | GLUT1 pIC50 [1] | GLUT2 pIC50 [2]
CC(=O)N1CCN(Cc2c(-c3ccc(Cl)cc3)nc3ccc(N4CCCS4(=O)=O)cn23)CC1 [Compound 320] | +++ (pIC50 ≧ 6.00) | +++ (pIC50 ≧ 6.00)
Clc1ccc(-c2nc3cnc(C4CC4)cn3c2CN2CCn3ncnc3C2)c(Cl)c1 [Compound 323] | +++ (pIC50 ≧ 6.00) | +++ (pIC50 ≧ 6.00)
CN(c1ccc2nc(-c3ccc(Cl)cc3)c(CN3CCn4ncnc4C3)n2c1)S(C)(=O)=O [Compound 324] | +++ (pIC50 ≧ 6.00) | ++ (pIC50 5.00-5.99)
CN(c1ccc2nc(-c3ccc(Cl)cc3)c(CN3CCNC(=O)C3)n2c1)S(C)(=O)=O [Compound 325] | +++ (pIC50 ≧ 6.00) | ++ (pIC50 5.00-5.99)
CC(=O)N1CCN(Cc2c(-c3ccc(Cl)cc3)nc3ccc(N(C)S(=O)(=O)C4CC4)cn23)CC1 [Compound 327] | +++ (pIC50 ≧ 6.00) | ++ (pIC50 5.00-5.99)
Fc1cncc(F)c1-c1ccc2nc(-c3ccc(Cl)cc3)c(CN3CCOCC3)n2c1 [Compound 328] | ++ (pIC50 5.00-5.99) | ++ (pIC50 5.00-5.99)
Clc1ccc(-c2nc3ccc(-c4ncon4)cn3c2CN2CCn3ncnc3C2)c(Cl)c1 [Compound 329] | +++ (pIC50 ≧ 6.00) | +++ (pIC50 ≧ 6.00)
CS(=O)(=O)N1CCN(Cc2c(-c3ccc(Cl)cc3Cl)nc3cnc(C4CC4)cn23)CC1 [Compound 330] | +++ (pIC50 ≧ 6.00) | ++ (pIC50 5.00-5.99)
CC(=O)N1CCN(Cc2c(-c3ccc(Cl)cc3)nc3cnc(NS(C)(=O)=O)cn23)CC1 [Compound 331] | +− (pIC50 < 4.00) | +− (pIC50 < 4.00)
CS(=O)(=O)Nc1ccc2nc(-c3ccc(Cl)cc3)c(CN3CCn4ncnc4C3)n2c1 [Compound 337] | +++ (pIC50 ≧ 6.00) | ++ (pIC50 5.00-5.99)
O=C(C1COC1)N1CCN(Cc2c(-c3ccc(Cl)cc3Cl)nc3ccc(-c4ncon4)cn23)CC1 [Compound 338] | +++ (pIC50 ≧ 6.00) | +++ (pIC50 ≧ 6.00)
Clc1ccc(-c2nc3ccc(-c4ccccc4)cn3c2CCN2CCOCC2)cc1 [Compound 342] | +− (pIC50 < 4.00) | ++ (pIC50 5.00-5.99)
CC(=O)N1CCN(Cc2c(-c3ccc(Cl)cc3Cl)nc3cnc(NS(C)(=O)=O)cn23)CC1 [Compound 344] | +− (pIC50 < 4.00) | +− (pIC50 < 4.00)
CS(=O)(=O)Nc1ccc2nc(-c3ccc(Cl)cc3Cl)c(CN3CCn4ncnc4C3)n2c1 [Compound 345] | +++ (pIC50 ≧ 6.00) | ++ (pIC50 5.00-5.99)
CC(=O)N1CCN(Cc2c(-c3ccc(Cl)cc3Cl)nc3cnc(N(C)S(C)(=O)=O)cn23)CC1 [Compound 347] | +++ (pIC50 ≧ 6.00) | ++ (pIC50 5.00-5.99)
Clc1ccc(-c2nc3cnc(C4CC4)cn3c2CN2CCNCC2)cc1 [Compound 348] | +− (pIC50 < 4.00) | +− (pIC50 < 4.00)
CC(=O)N1CCN(Cc2c(-c3ccc(Cl)cc3Cl)nc3cnccn23)CC1 [Compound 349] | ++ (pIC50 5.00-5.99) | +− (pIC50 < 4.00)
Clc1ccc(-c2nc3ccc(-c4ccccc4)cn3c2CN2CCSCC2)cc1 [Compound 352] | +− (pIC50 < 4.00) | +− (pIC50 < 4.00)
CC(=O)N1CCN(Cc2c(-c3ccc(Cl)cc3Cl)nc3ccc(N4CCCCS4(=O)=O)cn23)CC1 [Compound 354] | +++ (pIC50 ≧ 6.00) | +++ (pIC50 ≧ 6.00)
CS(=O)(=O)Nc1ccc2nc(-c3ccc(Cl)cc3Cl)c(CN3CCOCC3)n2c1 [Compound 357] | +++ (pIC50 ≧ 6.00) | ++ (pIC50 5.00-5.99)
